Test results: patent publication US11517574B2 (priority 2017, dated 2022)
≈ marks a conversion by molar mass, not a printed value.

Key:
[1] = Particle size distribution by laser diffraction; type: physicochemical; conditions: dispersive pressure 3 bar
Text: Different crystal forms of linezolid were chosen and tested for their feasibility of suspension. Two crystal modifications (polymorphs) of Linezolid: Form II (FII) and Form III (FIII) were obtained from Symed labs Ltd (India). Approximately, 1 g each of FII and FIII was jet milled using a LaboMill jet miller (F.P.S. Food and Pharma Systems s.r.l, Italy) with an injection line pressure at 7 bar and the grind line at 4 bar. The particle size distribution of the raw and air-jet milled material was analyzed by laser diffraction (Sympatec GmbH, Helos Disperse). 5 mg of each sample was placed in a dry powder disperser (RODOS/M). A reference measurement was taken before running each sample for 5 sec at 2% optical concentration. The results were obtained at a pressure of 3 bars using lenses, R1 (0.18-0.35 μm) and R2 (0.25/0.45-87.5 μm) (Table 4). The data was collected using HELOS sensor and analyzed using Windox5 software.
The particle size distribution of the raw and air-jet milled material was analyzed by laser diffraction (Sympatec GmbH, Helos Disperse). The data on the size distribution for unmilled powder (R1) and milled powder (R4) were collected and analyzed. Air jet milling reduced the particle size from D10 4 to 6 μm (D10, 10% of the mass of the sample is comprised of particles with diameter less than this range) and D90 40 to 50 μm (D90, 90% of the mass of the sample is comprised of particles with is diameter less than this range) particle size distribution to a D10 0.4 to 0.50 μm and D90 4 to 5 μm.

[2] = Suspension of milled linezolid Form II and Form III in poloxamer vehicle; type: physicochemical; conditions: 50 mg in one mL poloxamer vehicle, manual shaking one minute
Procedure: 50 mg of each form was weighed and one mL of poloxamer vehicle was added. The particles were re-suspended by manual shaking for one minute.

[3] = Gamma irradiation: appearance and chemical stability (UPLC)
[4] = Dry heat sterilization: appearance and chemical stability (UPLC)
Gram-positive bacteria = conditions: cited from earlier work
[5] = Nitrogen, no irradiation (—), Cold
[6] = Nitrogen, no irradiation (—), RT

CC(=O)NC[C@H]1CN(c2ccc(N3CCOCC3)c(F)c2)C(=O)O1 [FIII]
Particle size distribution X10 ([1]; Jet milled): 0.63 ± 0.01 μm
Particle size distribution X50 ([1]; Jet milled): 2.06 ± 0.02 μm
Particle size distribution X90 ([1]; Jet milled): 4.50 ± 0.12 μm
VMD (Volume mean diameter in μm) ([1]; Jet milled): 2.38 μm
Particle size distribution X10 ([1]; Raw (pre-milled)): 1.03 μm
Particle size distribution X50 ([1]; Raw (pre-milled)): 4.33 μm
Particle size distribution X90 ([1]; Raw (pre-milled)): 11.46 μm
VMD (Volume mean diameter in μm) ([1]; Raw (pre-milled)): 5.52 μm
Suspension behaviour of air jet milled particles ([2]; listed as Form III): formed lumps and were not evenly distributed

CC(=O)NC[C@H]1CN(c2ccc(N3CCOCC3)c(F)c2)C(=O)O1 [FII, (S)—N-[[3-[3-fluoro-4-(4-morpholinyl)phenyl]-2-oxo-5-oxazolidinyl]methyl] acetamide]
Stability % 25° C. day 28 ([3]; Air, 15 KGy, Cold): 99.4%
Stability % 40° C. day 28 ([3]; Air, 15 KGy, Cold): 98.0%
Stability % t = 0 ([3]; Air, 15 KGy, Cold): 99%
Stability % 25° C. day 28 ([3]; Air, 15 KGy, RT): 99.4%
Stability % 40° C. day 28 ([3]; Air, 15 KGy, RT): 99.1%
Stability % t = 0 ([3]; Air, 15 KGy, RT): 99.5%
Stability % 25° C. day 28 ([3]; Air, 25 KGy, Cold): 99.6%
Stability % 40° C. day 28 ([3]; Air, 25 KGy, Cold): 99.7%
Stability % t = 0 ([3]; Air, 25 KGy, Cold): 100%
Stability % 25° C. day 28 ([3]; Air, 25 KGy, RT): 100%
Stability % 40° C. day 28 ([3]; Air, 25 KGy, RT): 98.9%
Stability % t = 0 ([3]; Air, 25 KGy, RT): 100%
Stability % 25° C. day 28 ([3]; Air, no irradiation (—), Cold): 98.1%
Stability % 40° C. day 28 ([3]; Air, no irradiation (—), Cold): 99.6%
Stability % t = 0 ([3]; Air, no irradiation (—), Cold): 100%
Stability % 25° C. day 28 ([3]; Air, no irradiation (—), RT): 99.5%
Stability % 40° C. day 28 ([3]; Air, no irradiation (—), RT): 100.1%
Stability % t = 0 ([3]; Air, no irradiation (—), RT): 100%
Stability % 25° C. day 28 ([3]; Nitrogen, 15 KGy, Cold): 97.5%
Stability % 40° C. day 28 ([3]; Nitrogen, 15 KGy, Cold): 99.3%
Stability % t = 0 ([3]; Nitrogen, 15 KGy, Cold): 100%
Stability % 25° C. day 28 ([3]; Nitrogen, 15 KGy, RT): 98.8%
Stability % 40° C. day 28 ([3]; Nitrogen, 15 KGy, RT): 99.5%
Stability % t = 0 ([3]; Nitrogen, 15 KGy, RT): 100%
Stability % 25° C. day 28 ([3]; Nitrogen, 25 KGy, Cold): 100%
Stability % 40° C. day 28 ([3]; Nitrogen, 25 KGy, Cold): 99.3%
Stability % t = 0 ([3]; Nitrogen, 25 KGy, Cold): 100%
Stability % 25° C. day 28 ([3]; Nitrogen, 25 KGy, RT): 99.6%
Stability % 40° C. day 28 ([3]; Nitrogen, 25 KGy, RT): 99.4%
Stability % t = 0 ([3]; Nitrogen, 25 KGy, RT): 100.5%
Stability % 25° C. day 28 [3, 5]: 99.6%
Stability % 40° C. day 28 [3, 5]: 99%
Stability % t = 0 [3, 5]: 100%
Stability % 25° C. day 28 [3, 6]: 98.7%
Stability % 40° C. day 28 [3, 6]: 97.7%
Stability % t = 0 [3, 6]: 99.5%
Appearance ([4]; dry heat 120° C., 20 hr): Powder
Chemical Stability % expected parent (2-8° C. (control) t = 0) ([4]; dry heat 120° C., 20 hr): 100%
Appearance ([4]; dry heat 120° C., 50 hr): Powder
Chemical Stability % expected parent (2-8° C. (control) t = 0) ([4]; dry heat 120° C., 50 hr): 99%
Appearance ([4]; dry heat 130° C., 8 hr): Yellow
Chemical Stability % expected parent (2-8° C. (control) t = 0) ([4]; dry heat 130° C., 8 hr): 39%
Appearance ([4]; dry heat 130° C., 20 hr): Yellow
Chemical Stability % expected parent (2-8° C. (control) t = 0) ([4]; dry heat 130° C., 20 hr): 26%
Appearance ([4]; dry heat 130° C., 50 hr): Yellow
Chemical Stability % expected parent (2-8° C. (control) t = 0) ([4]; dry heat 130° C., 50 hr): 19%
Appearance ([4]; dry heat 140° C., 4 hr): Yellow
Chemical Stability % expected parent (2-8° C. (control) t = 0) ([4]; dry heat 140° C., 4 hr): 52%
Appearance ([4]; dry heat 140° C., 8 hr): Powder
Chemical Stability % expected parent (2-8° C. (control) t = 0) ([4]; dry heat 140° C., 8 hr): 97%
Appearance ([4]; dry heat 140° C., 20 hr): Yellow
Chemical Stability % expected parent (2-8° C. (control) t = 0) ([4]; dry heat 140° C., 20 hr): 17%
Appearance ([4]; dry heat 160° C., 2 hr): Yellow
Chemical Stability % expected parent (2-8° C. (control) t = 0) ([4]; dry heat 160° C., 2 hr): 16%
Particle size distribution X10 ([1]; Jet milled): 0.61 ± 0.01 μm
Particle size distribution X50 ([1]; Jet milled): 1.79 ± 0.03 μm
Particle size distribution X90 ([1]; Jet milled): 3.95 ± 0.04 μm
VMD (Volume mean diameter in μm) ([1]; Jet milled): 2.07 μm
Particle size distribution X10 ([1]; Raw (pre-milled)): 0.94 μm
Particle size distribution X50 ([1]; Raw (pre-milled)): 3.79 μm
Particle size distribution X90 ([1]; Raw (pre-milled)): 44.75 μm
VMD (Volume mean diameter in μm) ([1]; Raw (pre-milled)): 14.70 μm
Suspension behaviour of air jet milled particles [2]: dispersed uniformly

CC(=O)NC[C@H]1CN(c2ccc(N3CCOCC3)c(F)c2)C(=O)O1 [Linezolid, (S)—N-[[3-[3-fluoro-4-(4-morpholinyl)phenyl]-2-oxo-5-oxazolidinyl]methyl] acetamide]
MIC (Gram-positive bacteria): 4 µg/mL (≈ 11.9 µM)
